Test results reported in patent publication US6046329A, “Uracil derivatives” (Byk Gulden Lomberg Chemische Fabrik GmbH, priority 1994, dated 2000).

Key:
α1A receptor = molecular target: T1, α1A receptor (Rattus norvegicus, UniProt P43140); experiment: Radioligand binding with [3H]prazosine, affinity for α1A receptor subtype; conditions: membranes from rat brain cortex, IC50 corrected according to Cheng and Prusoff; for Ki: read-out: Receptor affinity α1A, expressed in pKI values (converted)
T1 construct: membranes from rat brain cortex; from tissue; host or cells: rat brain cortex membranes
T1 sequence (P43140 1-466): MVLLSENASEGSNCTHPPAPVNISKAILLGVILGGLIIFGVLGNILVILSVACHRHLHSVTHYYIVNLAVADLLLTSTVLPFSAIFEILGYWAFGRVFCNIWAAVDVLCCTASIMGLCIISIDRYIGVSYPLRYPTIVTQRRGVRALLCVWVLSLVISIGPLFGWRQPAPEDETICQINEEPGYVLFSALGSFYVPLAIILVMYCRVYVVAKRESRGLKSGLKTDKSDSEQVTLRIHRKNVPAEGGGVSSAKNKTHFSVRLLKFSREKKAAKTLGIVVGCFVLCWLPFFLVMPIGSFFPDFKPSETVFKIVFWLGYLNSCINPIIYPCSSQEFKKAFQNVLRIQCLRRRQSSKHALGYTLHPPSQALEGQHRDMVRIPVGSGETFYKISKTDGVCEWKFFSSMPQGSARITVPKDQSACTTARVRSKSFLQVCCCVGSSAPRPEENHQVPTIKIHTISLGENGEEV
Procedure: (§1) The affinity of substances for α1 receptor subtypes was determined in radioligand binding studies using [^3 H]prazosine as a radioligand. 50-200 μg of membranes from rat brain cortex were incubated in a total volume of 0.5-1 ml with [^3 H]prazosine (0.2 to 0.5 nmol/l) in the presence of rising concentrations of substances. The incubation buffer used was 50 mmol/l tris/HCl pH 7.5, 1 mmol/l EDTA, 0.1 mmol/l PMSF. The nonspecific binding was determined in separate batches in the presence of 10 μmol/l of phentolamine or 1 μmol/l of prazosine. After 1 h at 37° C., the bound radioactivity was separated from the free radioactivity by rapid filtration of the incubation batch at 0° C. through glass fiber filters. The filters were washed twice with 3.5 ml each of cold filtration buffer (50 mmol/l tris/HCl pH 7.4, 10 mmol/l MgCl2, 10% polyethylene glycol 6000). The filter-bound radioactivity was determined by liquid scintillation counting. Substances with subtype selectivity for the α1 receptor subtypes were tested again in the presence of 3 nmol/l of WB 4101. WB4101 blocks the binding of [^3 H]prazosine to the α1A receptor subtype and the remaining binding corresponds to that to the α1B receptor.
(§2) For each substance, dose-response curves were plotted by means of nonlinear regression using the Inplot program (GraphPad, Sorento, Calif., USA). IC50 values were corrected by the concentration of the radioligand employed according to the formula of Cheng and Prusoff. The resulting KI values (see following table) represent the affinity of the respective substance for the tested receptor. The compounds according to the invention investigated according to the model illustrated in greater detail above have been provided in the following table with numbers which correspond to the numbers of these compounds in the examples.

5-HT1A receptor = molecular target: T2, 5-HT1A receptor (Sus scrofa, UniProt A0A4X1UTF5); experiment: Radioligand binding with [3H]8-OH-DPAT, affinity for 5-HT1A receptor; conditions: membranes from pig brain cortex, IC50 corrected according to Cheng and Prusoff; for Ki: read-out: Receptor affinity 5-HT1A, expressed in pKI values (converted)
T2 construct: membranes from pig brain cortex; from tissue; host or cells: pig brain cortex membranes
T2 sequence (A0A4X1UTF5 1-422): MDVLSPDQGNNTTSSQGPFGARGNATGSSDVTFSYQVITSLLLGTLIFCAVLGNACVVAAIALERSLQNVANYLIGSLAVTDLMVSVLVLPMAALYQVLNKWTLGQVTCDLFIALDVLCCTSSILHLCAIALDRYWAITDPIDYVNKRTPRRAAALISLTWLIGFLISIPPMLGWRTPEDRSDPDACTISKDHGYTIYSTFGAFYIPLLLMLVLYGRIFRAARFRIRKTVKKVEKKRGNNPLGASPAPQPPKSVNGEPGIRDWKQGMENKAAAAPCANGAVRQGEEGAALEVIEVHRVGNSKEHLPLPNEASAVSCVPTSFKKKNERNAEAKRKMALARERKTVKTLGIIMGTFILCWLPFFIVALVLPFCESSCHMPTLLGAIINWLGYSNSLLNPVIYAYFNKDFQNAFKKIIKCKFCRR
Procedure: The affinity of substances for the 5-HT1A receptor was determined in radioligand binding studies using [^3 H]8-OH-DPAT as a radioligand. 50-150 μg of membranes from pig brain cortex were incubated in a total volume of 0.25-0.5 ml with [^3 H]8-OH-DPAT (0.2 to 0.4 nmol/l) in the presence of rising concentrations of substances. The incubation buffer used was 50 mmol/l tris/HCl pH 8.2, 1 mmol/l MnCl2. The nonspecific binding was determined in separate batches in the presence of 10 μmol/l of 5-HT. After 30 min at 23° C., the bound radioactivity was separated from the free radioactivity by rapid filtration of the incubation batch at 0° C. through glass fiber filters. The filters were washed twice with 3.5 ml each of cold filtration buffer (50 mmol/l tris/HCl pH 7.4, 10 mmol/l MgCl2, 10% polyethylene glycol 6000). The filter-bound radioactivity was determined by liquid scintillation counting.
as §2

α1B receptor = molecular target: T3, α1B receptor (Rattus norvegicus, UniProt P15823); experiment: Radioligand binding with [3H]prazosine (in the presence of WB 4101), affinity for α1B receptor subtype; conditions: membranes from rat brain cortex, subtype-selective substances tested again in the presence of 3 nmol/l WB 4101, Cheng and Prusoff; for Ki: read-out: Receptor affinity α1B, expressed in pKI values (converted)
T3 construct: membranes from rat brain cortex; from tissue; host or cells: rat brain cortex membranes
T3 sequence (P15823 1-515): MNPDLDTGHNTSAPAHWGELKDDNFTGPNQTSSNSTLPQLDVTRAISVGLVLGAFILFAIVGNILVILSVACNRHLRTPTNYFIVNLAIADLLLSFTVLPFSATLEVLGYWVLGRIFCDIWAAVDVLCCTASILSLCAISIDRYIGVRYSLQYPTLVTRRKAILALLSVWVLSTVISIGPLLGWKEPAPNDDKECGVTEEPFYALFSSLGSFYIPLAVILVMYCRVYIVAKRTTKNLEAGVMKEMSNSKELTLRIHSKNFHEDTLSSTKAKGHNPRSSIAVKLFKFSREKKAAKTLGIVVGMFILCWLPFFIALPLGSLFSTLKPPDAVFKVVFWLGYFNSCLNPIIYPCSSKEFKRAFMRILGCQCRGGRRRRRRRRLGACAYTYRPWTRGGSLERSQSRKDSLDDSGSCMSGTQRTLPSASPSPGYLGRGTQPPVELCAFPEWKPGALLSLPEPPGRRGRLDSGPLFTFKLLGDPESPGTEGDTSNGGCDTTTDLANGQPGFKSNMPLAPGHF
Procedure: as §1, §2

Cn1c(NCCCN2CCN(c3cccc4c3OCC(CO)O4)CC2)c(Cc2c(NCCCN3CCN(c4cccc5c4OCC(CO)O5)CC3)n(C)c(=O)n(C)c2=O)c(=O)n(C)c1=O (stereo not drawn) [Compound 10, Bis[1,3-dimethyl-6-[[3-[4-((2,3-dihydro-2-hydroxymethyl)-1,4-benzodioxin-5-yl)-1-piperazinyl]propyl]amino]-2,4(1H,3H)-pyrimidinedione-5,5'-yl]methane]
Ki (α1A receptor): 0.00794 µM | Ki (5-HT1A receptor): 0.000501 µM | Ki (α1B receptor): 0.00794 µM

Cn1c(NCCCN2CCN(c3ccccc3OC(F)(F)C(F)F)CC2)c(CCC#N)c(=O)n(C)c1=O [Compound 8]
Receptor affinity α1A, expressed in pKI values (α1A receptor): 9.2 | Receptor affinity 5-HT1A, expressed in pKI values (5-HT1A receptor): 10.0 | Receptor affinity α1B, expressed in pKI values (α1B receptor): 7.5

COc1ccccc1N1CCN(CCCNC(=O)c2cc(=O)n(C)c(=O)n2C)CC1 [Compound 5, 1,3-Dimethyl-2,4(1H,3H)-pyrimidinedione-6-carboxylic acid [[3-[4-(2-methoxyphenyl)-1-piperazinyl]propyl]amide]]
Ki (α1A receptor): 0.00501 µM | Ki (5-HT1A receptor): 0.00251 µM | Ki (α1B receptor): 0.251 µM

COc1ccccc1N1CCN(CCCNC2=CC(=O)N(C)S(=O)(=O)N2C)CC1 [Compound 18, 5-{3-[4-(2-Methoxyphenyl)piperazin-1-yl]-propylamino}-2,6-dimethyl-1,1-dioxo-6H-[1,2,6]thiadiazin-3-one]
Ki (α1A receptor): 0.00631 µM | Ki (5-HT1A receptor): 0.0158 µM | Ki (α1B receptor): 0.126 µM

COc1ccccc1N1CCN(CCCNc2cc(=S)n(C)c(=O)n2C)CC1 [Compound 19, 6-{3-[4-(2-Methoxyphenyl)piperazin-1-yl]-propylamino}-1,3-dimethyl-4-thioxo-3,4-dihydro-1H-pyrimidin-2-one]
Ki (α1A receptor): 0.0316 µM | Ki (5-HT1A receptor): 0.01 µM | Ki (α1B receptor): 0.0316 µM

Cc1c(NCCCN2CCN(c3ccccc3O)CC2)n(C)c(=O)n(C)c1=O [Compound 13, 1,3,5-Trimethyl-6-[[3-[4-(2-hydroxyphenyl)-1-piperazinyl]propyl]amino]-2,4(1H,3H)-pyrimidinedione]
Ki (α1A receptor): 0.02 µM | Ki (5-HT1A receptor): 0.000251 µM | Ki (α1B receptor): 0.02 µM

COc1ccccc1N1CCN(CCCNc2c(C=NO)c(=O)n(C)c(=O)n2C)CC1 [Compound 16, 1,3-Dimethyl-5-hydroxyiminomethyl-6-[[3-[4-(2-methoxphenyl)-1-piperazinyl]propyl]amino]-2,4(1H,3H)-pyrimidinedione]
Ki (α1A receptor): 0.002 µM | Ki (5-HT1A receptor): 0.001 µM | Ki (α1B receptor): 0.0501 µM

COc1cc([N+](=O)[O-])ccc1N1CCN(CCCNc2c(C)c(=O)n(C)c(=O)n2C)CC1 [Compound 14, 1,3,5-Trimethyl-6-[[3-[4-(2-methoxy-4-nitrophenyl)-1-piperazinyl]propyl]amino]-2,4(1H,3H)-pyrimidinedione]
Ki (α1A receptor): 0.251 µM | Ki (5-HT1A receptor): 0.2 µM | Ki (α1B receptor): 0.251 µM

Cc1c(NCCCN2CCN(c3ccccc3OC(F)(F)C(F)F)CC2)n(C)c(=O)n(C)c1=O [Compound 6, 1,3,5-Trimethyl-6-[[3-[4-(2-tetrafluoro-ethoxyphenyl)-1-piperazinyl]-propyl]amino]-2,4(1H,3H)-pyrimidinedione]
Receptor affinity α1A, expressed in pKI values (α1A receptor): 9.4 | Receptor affinity 5-HT1A, expressed in pKI values (5-HT1A receptor): 9.7 | Receptor affinity α1B, expressed in pKI values (α1B receptor): 7.5

COc1ccccc1N1CCN(CCCNc2c(OC)c(=O)n(C)c(=O)n2C)CC1 [Compound 17]
Ki (α1A receptor): 0.0501 µM | Ki (5-HT1A receptor): 0.00251 µM | Ki (α1B receptor): 0.0501 µM

C=CCc1c(NCCCN2CCN(c3ccc(F)cc3OCC)CC2)n(C)c(=O)n(C)c1=O [Compound 7, 5-Allyl-1,3-dimethyl-6-[[3-[4-(2-ethoxy-4-fluorophenyl)-1-piperazinyl]propyl]amino]-2,4(1H,3H)-pyrimidinedione]
Ki (α1A receptor): 0.000631 µM | Ki (5-HT1A receptor): 0.000794 µM | Ki (α1B receptor): 0.0398 µM

CCOC(=O)c1c(NCCCN2CCN(c3ccccc3OC)CC2)n(C)c(=O)n(C)c1=O [Compound 12, 1,3-Dimethyl-5-ethoxycarbonyl-6-[[3-[4-(2-methoxyhenyl)-1-piperazinyl]propyl]amino]-2,4(1H,3H)-pyrimidinedione]
Ki (α1A receptor): 0.0251 µM | Ki (5-HT1A receptor): 0.00631 µM | Ki (α1B receptor): 0.0251 µM
